In general, pKa refers to the negative logarithm of the acid dissociation constant. The low end stands for a group that gives up its proton readily, the high end for a group that holds its proton tightly. As a reminder, the Ki is a dissociation constant, usually derived from enzyme kinetics or from competition with a known ligand. Lower therefore signals tighter binding. One may read the logP as the decadic logarithm of the partition coefficient of the neutral form, usually between octanol and water. What is called melting point is the temperature of the solid-liquid transition.

From patent publication US8592458B2 (priority 2005, dated 2013) come the findings set out here.

A short description of data set [1]: Spectrophotometric pKa determination of the imine nitrogen. It counts as physicochemical. Conditions: for % ionized: percent ionization at pH 7.4. The protocol: Thirteen different pH values in the titration region were evaluated (pH: 4, 5, 6, 7, 7.2, 7.5, 7.8, 8, 8.2, 8.5, 8.8, 9, 10). A specific concentration of 3-benzylidene-3-arylidene-anabaseine compound, 1.3×10^−3 M, was added to the potassium phosphate buffers at varied pH values. Each tube was then vortexed and immediately read in a Beckman spectrophotometer. The same glass cuvette was used with every sample. The glass cuvette was thoroughly rinsed with distilled deionized water between different pH samples. The wavelength scan was set to a range of 250-600 nm. The pH with the highest change in absorbance was determined. The wavelength at the highest change in absorbance and the absorbance values for all of the different pH samples at this wavelength were entered into the Enzfitter software (Elsevier-Biosoft, Cambridge, UK) in order to estimate each pKa value.

Data set [2] deals with α7 nAChR (Rattus norvegicus, UniProt Q05941). Type of data set: binding. Conditions: for Ki α4β2/α7 Ratio: alpha7 selectivity, not normalized with respect to DMXBA selectivity; for Ki: rat brain membranes, [125I]alpha-bungarotoxin, n = 2.
Data set [3] is described as follows: Octanol/water partition coefficient by RP-HPLC. Type of data set: physicochemical. Conditions: 1-octanol/sodium phosphate buffer; 1-octanol / 10 mM sodium phosphate buffer pH 7.4 with 150 mM NaCl, corrected for ionization. As to the method: P is the ratio of the concentration of an un-ionized form of a compound in octanol relative to the unionized concentration of the compound in an aqueous phase containing 150 mM NaCl (to approximate physiological conditions), after the two phases have equilibrated. Log P values were determined for each test compound by RP-HPLC analysis. Approximately 1 mg of each compound was weighed out and placed in equal volumes, 3 ml 10 mM sodium phosphate buffer, pH 7.4, which contained 150 mM NaCl, and 1-octanol. Previously, equal volumes of the sodium phosphate buffer and 1-octanol were added to a separatory funnel and allowed to equilibrate overnight. The equilibrated sodium phosphate buffer was checked prior to its addition to the compound for a pH of 7.4. Once these phases were added to the weighed compound, the solutions were allowed to equilibrate overnight on a gentle shaker at room temperature. The samples were centrifuged at […] for 5 minutes and octanol phase carefully removed with a Pasteur pipette. The pH of the water phase was remeasured in order to calculate the corrected Log P value.
Since large concentrations of octanol cannot be directly injected into the HPLC without affecting the elution of the compound being measured, the compound was extracted from the separated octanol phase with an acidic 150 mM NaCl solution adjusted to a pH of approximately 2.6 (with 100 mM glacial acetic acid). The acidic saline solution was allowed to gently mix with the octanol phase for 20 minutes on a shaker at room temperature. The samples containing the octanol and acidic saline phases were then centrifuged at 1,000×g for 5 minutes and the upper octanol phase was carefully removed with a Pasteur pipette. This back extraction step was repeated at least two and sometimes three times. All three or four back extracted solutions for a particular compound were then combined. Both the original aqueous and the back extracted octanol phases were then diluted with 50 mM ammonium acetate buffer, pH 4.5. The diluted samples were then transferred by pipette to autosampler tubes and subsequently […] of each diluted sample was injected into the HPLC. The area under the curve (AUC) of an absorbance peak was determined for samples from both (octanol and aqueous) of the original phases. Taking into account the dilutions of each sample phase during its preparation for HPLC determination, Log P (taking into consideration the percent ionization at pH 7.4) was then calculated.

The target in data set [4] is α4β2 nAChR (Rattus norvegicus, UniProt P09483+P12390). Kind of data set: Radioligand binding, displacement of [3H]cytisine from rat brain membranes. Conditions: n = 2. The protocol: Assays were performed using the experimental compound to compete for its nAChR binding site with a radioligand that specifically labels either the α4β2 or the α7 nAChR in homogenized Sprague-Dawley rat brain membrane. These assays were used to determine the IC50 of the experimental compounds, which is then used to determine the KI with the Cheng-Prusoff equation.
The 3-arylidene-anabaseine compound was suspended in 50 mM Tris binding saline, with 2 mg/ml BSA, if it was a salt, or in methanol if it was a free base, and dilutions were made in 2 mg/ml BSA Tris binding saline. The final solutions were incubated at 37° C. for approximately 2.5 hours. Once the reaction was assumed to be at equilibrium, it was stopped by harvesting the tissue onto GF/C filters, which were soaked for 45 minutes in a 0.5% polyethylenamine solution to reduce non-specific binding of the radioligand to the filter, using a Brandel tissue harvester. The filters were then placed in gamma tubes and counted on a Beckman counter for 5 minutes per sample. The counts per minute were then assessed, the results were entered, and the IC50s and KIs were determined using the software program Graphpad Prism®. The [^3H]cytisine experiments were performed in a similar manner. First the addition of all of the components: 1 nM [^3H]cytisine, 3-benzylidene-3-arylidene-anabaseine compound (5 nM-50 μM), 0.2 mg rat brain homogenate, and 2 mg/ml BSA Tris solution at a pH of 7.4 to bring the final volume up to 0.5 ml in each tube.
To assess non-specific binding, 1 mM nicotine was added in place of the 3-arylidene-anabaseine. To assess total binding, only the radioligand, tissue, and BSA Tris solution were added. The incubation time and the temperature were altered in this protocol to produce the greatest difference between total and non-specific binding and to maximize the affinity of the radioligand for the receptor, respectively. The incubation time for [^3H]cytisine was 4 hours at 4° C. […] The counts per minute were entered into GraphPad Prism® where the IC50s and the KIs were assessed.
Rat brain membrane was obtained frozen from Pel-Freez Biologicals (Rogers, Ariz.). The protein concentration of the rat brain homogenate was assessed using the bicinchoninic acid (BCA) protein assay kit from Pierce (Rockford, Ill.).
Displacement of ^125I-labelled alpha-bungarotoxin (BTX) measured binding to alpha7 receptors; displacement of [^3H]-labelled cytisine measured binding to alpha4beta2 receptors. […] Nonspecific binding of each radioligand was measured in the presence of 1.0 mM nicotine. […] Bound [3H] […] was measured in a liquid scintillation counter, whereas [125]BTX was measured with use of a Biogamma counter (both from Beckman Coulter).

Where [5] appears, read: imine nitrogen, room temperature, 50 mM potassium phosphate buffer, 150 mM NaCl.

Counter-ions that a name gives are not always drawn.

α7 nAChR, sequence (Q05941 23-502): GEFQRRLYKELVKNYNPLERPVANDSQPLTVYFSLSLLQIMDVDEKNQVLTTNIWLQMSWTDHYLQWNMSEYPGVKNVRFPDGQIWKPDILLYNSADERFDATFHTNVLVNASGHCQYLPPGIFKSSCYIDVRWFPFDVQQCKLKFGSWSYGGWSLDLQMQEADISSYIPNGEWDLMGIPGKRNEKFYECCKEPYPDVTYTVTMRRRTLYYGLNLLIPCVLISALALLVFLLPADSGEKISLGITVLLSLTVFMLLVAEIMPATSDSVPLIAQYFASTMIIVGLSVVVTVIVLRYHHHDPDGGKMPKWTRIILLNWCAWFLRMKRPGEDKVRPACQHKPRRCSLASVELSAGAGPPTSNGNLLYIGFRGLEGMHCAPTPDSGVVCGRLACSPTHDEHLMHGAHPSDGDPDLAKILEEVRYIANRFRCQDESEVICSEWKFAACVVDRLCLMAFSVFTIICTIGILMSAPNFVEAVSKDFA
α4β2 nAChR, sequence (P09483 31-630): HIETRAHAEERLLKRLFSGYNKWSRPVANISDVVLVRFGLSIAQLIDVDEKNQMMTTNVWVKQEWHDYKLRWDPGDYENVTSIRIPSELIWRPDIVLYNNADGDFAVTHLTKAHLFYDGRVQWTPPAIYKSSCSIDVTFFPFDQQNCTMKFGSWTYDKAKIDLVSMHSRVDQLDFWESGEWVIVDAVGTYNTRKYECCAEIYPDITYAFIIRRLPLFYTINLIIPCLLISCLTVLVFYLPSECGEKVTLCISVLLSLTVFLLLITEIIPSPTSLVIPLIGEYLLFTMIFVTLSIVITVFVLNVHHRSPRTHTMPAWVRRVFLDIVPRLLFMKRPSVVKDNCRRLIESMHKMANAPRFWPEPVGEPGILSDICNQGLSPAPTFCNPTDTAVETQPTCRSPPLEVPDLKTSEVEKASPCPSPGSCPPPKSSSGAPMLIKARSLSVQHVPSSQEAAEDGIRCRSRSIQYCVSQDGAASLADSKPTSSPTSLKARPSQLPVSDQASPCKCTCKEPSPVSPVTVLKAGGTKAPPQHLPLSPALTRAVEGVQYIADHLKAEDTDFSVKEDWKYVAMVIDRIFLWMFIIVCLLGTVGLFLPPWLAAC
α4β2 nAChR, sequence (P12390 25-500): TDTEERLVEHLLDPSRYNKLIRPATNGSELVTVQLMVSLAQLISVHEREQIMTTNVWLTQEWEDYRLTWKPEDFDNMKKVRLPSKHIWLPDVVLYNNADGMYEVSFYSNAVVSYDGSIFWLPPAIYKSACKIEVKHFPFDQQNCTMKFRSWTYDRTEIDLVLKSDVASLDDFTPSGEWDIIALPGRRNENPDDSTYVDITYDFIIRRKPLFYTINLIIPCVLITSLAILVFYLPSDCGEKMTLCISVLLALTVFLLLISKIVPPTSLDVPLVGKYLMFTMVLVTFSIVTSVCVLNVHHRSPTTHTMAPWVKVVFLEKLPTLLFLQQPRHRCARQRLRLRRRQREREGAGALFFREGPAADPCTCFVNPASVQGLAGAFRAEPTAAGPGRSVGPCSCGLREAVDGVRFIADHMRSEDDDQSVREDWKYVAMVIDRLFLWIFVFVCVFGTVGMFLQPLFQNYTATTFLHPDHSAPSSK

`C(=C1/CCCN=C1c1cccnc1)/c1ccc2c(c1)OCCO2` [3-[3,4-(Ethylenedioxy)benzylidene]-anabaseine]: the pKa in data set [1] (setting [5]) worked out at 7.56 ± 0.03. The “% ionized” value in data set [1] is given as 59.11%. Further, in data set [2], the “Ki α4β2/α7 Ratio” value is recorded as 2.60. For the same compound, the inhibitory constant (Ki) stood at 0.2 ± 0.01 µM in data set [2] and 0.52 ± 0.01 µM in data set [4]. Further, the logP in data set [3] turned out to be 3.1.

With `COc1ccc2cc(/C=C3\CCCN=C3c3cccnc3)ccc2c1` (as salt: hydrochloride) [3-[(6-Methoxy-naphth-2-yl)-methylene]-anabaseine dihydrochloride], the melting point lay in the range of 223 to 226 °C.

In data set [1] (setting [5]), `C(=C1/CCCN=C1c1cccnc1)/c1ccc2c(c1)OCO2` [3-[3,4-(Methylenedioxy)benzylidene]-anabaseine] registered a pKa of 7.64 ± 0.04. Further, the “% ionized” value in data set [1] came out at 63.48%. In data set [2], the “Ki α4β2/α7 Ratio” value is given as 3.04 and the inhibition constant Ki amounted to 0.23 ± 0.002 µM. In data set [3], this compound displayed a logP of 2.43. In addition, in data set [4], the inhibition constant (Ki) amounted to 0.7 ± 0.07 µM.

`C(=C1/CCCN=C1c1cccnc1)/c1cc2ccccc2o1` [3-[(Benzofuran-2-yl)methylene]-anabaseine]: the PKa in data set [1] (setting [5]) is recorded as 9/2/04. Moreover, the “% ionized” value in data set [1] is given as 33.90%. In addition, in data set [2], the “Ki α4β2/α7 Ratio” value came out at 39.5 and the affinity, expressed as Ki, was 0.15 ± 0.003 µM. Further, in data set [3], the logP was 3.86 ± 0.4. In data set [4], this compound yielded an inhibitory constant (Ki) of 5.92 ± 1.06 µM.

Consider `COc1ccc2cc(/C=C3\CCCN=C3c3cccnc3)ccc2c1` [3-[(6-Methoxy-naphth-2-yl)-methylene]-anabaseine dihydrochloride], for which the pKa in data set [1] (setting [5]) was determined as 7.29 ± 0.12. In addition, in data set [1], the “% ionized” value came to 43.67%. Further, the “Ki α4β2/α7 Ratio” value in data set [2] was determined as 1.62. The values for the Ki in data set [2] and in data set [4] were 0.37 ± 0.03 µM and 0.6 ± 0.1 µM, respectively. Moreover, the logP in data set [3] is 2.65.
